The source made the active and inactive calls.
Tests used:
[1] = biological target: Cytochrome P450 2C9 (Homo sapiens, UniProt P11712); conditions: Potency
[2] = Luminescence Cell-Based Dose Retest to Confirm Inhibitors of Cancer Stem Cells. [Related pubchem assays (depositor defined):AID2717, AID2721]; format: functional; conditions: Homo sapiens
[3] = biological target: Beta-galactosidase (Escherichia coli, UniProt Q8VNN2); test: detection-enzyme interference by beta-gal modulators – biochemical, E. coli enzyme, set 3, artefact control for CCR6 antagonist project, dose response (AID 504712); format: functional
[4] = biological target: Heat shock protein HSP 90-alpha (Homo sapiens, UniProt P07900); format: functional, organism-based
[5] = biological target: T1, Exodeoxyribonuclease V (Escherichia coli (strain K12), UniProt P04993+P07648+P08394); test: RecBCD inhibition via phage-restricted bacterial growth – absorbance, V66 E. coli, mutant T4 phage, counter-screen for AddAB inhibitor project, dose response (AID 492957); format: functional, cell-based, Escherichia coli str. K-12 substr. MG1655
T1 sequence (P04993 whole entry): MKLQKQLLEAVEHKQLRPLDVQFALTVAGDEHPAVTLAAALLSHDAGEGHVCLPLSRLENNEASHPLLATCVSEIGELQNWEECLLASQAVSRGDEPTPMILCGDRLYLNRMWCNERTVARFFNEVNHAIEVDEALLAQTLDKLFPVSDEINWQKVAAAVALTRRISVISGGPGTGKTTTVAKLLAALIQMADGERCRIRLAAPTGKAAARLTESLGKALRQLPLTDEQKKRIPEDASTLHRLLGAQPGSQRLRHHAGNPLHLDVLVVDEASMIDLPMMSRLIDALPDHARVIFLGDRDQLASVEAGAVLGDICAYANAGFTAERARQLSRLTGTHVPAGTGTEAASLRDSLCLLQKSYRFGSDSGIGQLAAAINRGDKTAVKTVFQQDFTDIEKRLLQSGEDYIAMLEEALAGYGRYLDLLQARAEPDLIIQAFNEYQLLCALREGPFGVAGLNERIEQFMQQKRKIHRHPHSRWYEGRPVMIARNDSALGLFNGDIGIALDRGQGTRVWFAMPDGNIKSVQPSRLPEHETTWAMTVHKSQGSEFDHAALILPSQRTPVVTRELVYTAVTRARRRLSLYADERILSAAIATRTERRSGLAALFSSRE
T1 sequence (P07648 whole entry): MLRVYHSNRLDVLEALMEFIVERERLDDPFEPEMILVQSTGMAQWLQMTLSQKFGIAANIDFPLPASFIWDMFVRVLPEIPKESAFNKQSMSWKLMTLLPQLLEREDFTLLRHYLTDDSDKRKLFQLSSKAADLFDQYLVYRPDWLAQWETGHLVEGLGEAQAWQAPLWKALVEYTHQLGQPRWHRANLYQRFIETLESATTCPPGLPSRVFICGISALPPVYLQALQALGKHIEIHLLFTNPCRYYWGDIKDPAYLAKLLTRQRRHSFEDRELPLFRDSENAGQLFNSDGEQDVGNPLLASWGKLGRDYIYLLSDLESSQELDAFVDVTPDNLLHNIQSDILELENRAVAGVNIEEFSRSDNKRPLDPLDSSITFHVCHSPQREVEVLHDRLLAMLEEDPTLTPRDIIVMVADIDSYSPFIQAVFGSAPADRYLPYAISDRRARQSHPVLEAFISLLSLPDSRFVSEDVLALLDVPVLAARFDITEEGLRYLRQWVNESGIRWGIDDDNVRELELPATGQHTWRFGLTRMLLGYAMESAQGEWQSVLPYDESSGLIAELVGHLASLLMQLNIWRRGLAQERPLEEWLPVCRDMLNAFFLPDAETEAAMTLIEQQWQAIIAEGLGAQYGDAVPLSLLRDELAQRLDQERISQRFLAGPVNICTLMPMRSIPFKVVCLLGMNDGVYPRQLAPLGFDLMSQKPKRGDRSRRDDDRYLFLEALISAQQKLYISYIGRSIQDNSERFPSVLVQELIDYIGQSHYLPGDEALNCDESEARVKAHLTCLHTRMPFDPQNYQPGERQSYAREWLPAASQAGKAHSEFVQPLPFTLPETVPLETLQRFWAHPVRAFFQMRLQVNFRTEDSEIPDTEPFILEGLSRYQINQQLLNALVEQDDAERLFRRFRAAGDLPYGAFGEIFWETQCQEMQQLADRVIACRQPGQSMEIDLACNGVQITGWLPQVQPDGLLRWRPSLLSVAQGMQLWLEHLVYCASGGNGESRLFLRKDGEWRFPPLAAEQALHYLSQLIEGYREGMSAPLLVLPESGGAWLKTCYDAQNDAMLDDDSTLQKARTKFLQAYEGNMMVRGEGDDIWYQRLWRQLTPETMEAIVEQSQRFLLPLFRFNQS
T1 sequence (P08394 whole entry): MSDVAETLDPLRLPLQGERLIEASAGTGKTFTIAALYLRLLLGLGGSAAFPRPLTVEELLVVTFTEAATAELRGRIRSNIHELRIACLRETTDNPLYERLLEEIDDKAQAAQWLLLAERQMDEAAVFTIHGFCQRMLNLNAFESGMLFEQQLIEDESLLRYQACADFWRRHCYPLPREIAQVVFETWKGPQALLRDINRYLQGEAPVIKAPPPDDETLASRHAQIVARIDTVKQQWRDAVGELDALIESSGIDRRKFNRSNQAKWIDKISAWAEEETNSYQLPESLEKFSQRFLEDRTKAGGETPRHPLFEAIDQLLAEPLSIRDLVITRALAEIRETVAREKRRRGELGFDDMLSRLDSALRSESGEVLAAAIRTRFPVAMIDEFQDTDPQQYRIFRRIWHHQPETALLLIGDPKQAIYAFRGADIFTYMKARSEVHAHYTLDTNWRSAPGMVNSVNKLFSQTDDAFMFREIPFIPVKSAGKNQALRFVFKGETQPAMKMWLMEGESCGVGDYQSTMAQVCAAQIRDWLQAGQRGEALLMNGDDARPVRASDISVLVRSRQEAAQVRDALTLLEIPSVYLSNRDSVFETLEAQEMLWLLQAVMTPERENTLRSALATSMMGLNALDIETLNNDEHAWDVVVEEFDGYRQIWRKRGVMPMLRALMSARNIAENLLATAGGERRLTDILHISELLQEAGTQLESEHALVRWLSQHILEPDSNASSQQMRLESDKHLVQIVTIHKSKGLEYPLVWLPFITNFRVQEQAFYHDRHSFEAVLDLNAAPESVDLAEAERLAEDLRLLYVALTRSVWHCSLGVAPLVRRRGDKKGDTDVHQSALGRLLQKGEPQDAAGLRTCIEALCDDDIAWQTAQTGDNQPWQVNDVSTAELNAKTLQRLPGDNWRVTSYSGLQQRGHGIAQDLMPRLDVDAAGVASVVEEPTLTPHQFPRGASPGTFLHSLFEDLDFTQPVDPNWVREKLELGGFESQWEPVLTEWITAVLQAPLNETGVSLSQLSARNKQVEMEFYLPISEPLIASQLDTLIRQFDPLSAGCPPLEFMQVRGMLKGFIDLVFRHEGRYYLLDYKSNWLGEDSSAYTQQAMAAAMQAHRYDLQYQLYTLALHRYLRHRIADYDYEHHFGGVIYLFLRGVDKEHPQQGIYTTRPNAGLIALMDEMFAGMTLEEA

[6] = biological target: Nonstructural protein 1 (Influenza A virus, UniProt Q194T2); format: functional, Influenza A virus (A/California/07/2009(H1N1))
[7] = Counterscreen for AddAB inhibitors: absorbance-based bacterial cell-based high throughput dose response assay for inhibitors of bacterial viability. [Related pubchem assays (depositor defined):AID435030, AID449728, AID449731, AID488942, AID488955, AID488956]; format: functional
[8] = biological target: T2, Microphthalmia-associated transcription factor (Homo sapiens, UniProt O75030); test: reducers of TRPM1 reporter luminescence, concentration series – cell-based, SK-MEL-5, cherry-picked, set 3, MITF inhibitor project, dose response (AID 493073); format: functional;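 also: SK-MEL-5 melanoma cells with luciferase driven by the MITF target TRPM1 promoter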
T2 sequence (O75030 whole entry): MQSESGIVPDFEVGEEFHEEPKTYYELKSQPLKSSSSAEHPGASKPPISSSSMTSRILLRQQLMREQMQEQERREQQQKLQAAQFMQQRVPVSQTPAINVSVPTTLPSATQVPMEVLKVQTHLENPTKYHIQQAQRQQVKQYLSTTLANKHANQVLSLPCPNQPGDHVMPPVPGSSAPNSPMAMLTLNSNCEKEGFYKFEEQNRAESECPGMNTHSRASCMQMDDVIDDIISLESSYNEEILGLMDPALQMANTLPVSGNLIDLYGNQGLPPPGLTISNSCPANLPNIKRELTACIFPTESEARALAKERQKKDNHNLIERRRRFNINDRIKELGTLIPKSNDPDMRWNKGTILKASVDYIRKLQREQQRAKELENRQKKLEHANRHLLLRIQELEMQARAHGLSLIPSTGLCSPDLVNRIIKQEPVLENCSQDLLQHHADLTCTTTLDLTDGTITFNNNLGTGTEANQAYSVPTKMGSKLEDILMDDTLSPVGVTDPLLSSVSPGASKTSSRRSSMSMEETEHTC

[9] = biological target: SUMO E1/E2 (Homo sapiens, UniProt P63279+Q9UBE0+Q9UBT2); test: SAR analysis of SUMOylation using HTRF in an in-Vitro dose response assay. [Related pubchem assays (depositor defined):AID2006, AID2011, AID2018, AID2069, AID2658]; format: functional
[10] = biological target: Peroxisome proliferator-activated receptor gamma/Nuclear receptor coactivator 2 (Homo sapiens, UniProt P37231); format: functional;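 also: agonist potency for raising coactivator recruitment to the receptor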
[11] = biological target: Peroxisome proliferator-activated receptor gamma/Nuclear receptor coactivator 1 (Homo sapiens, UniProt P37231); format: functional;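 also: agonist potency as compounds enhance coactivator SRC-1 recruitment to PPARgamma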
[12] = biological target: Peroxisome proliferator-activated receptor gamma/Nuclear receptor coactivator 3 (Homo sapiens, UniProt P37231); format: functional;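 also: agonist potency for raising coactivator recruitment to the receptor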
[13] = biological target: Cytochrome P450 2D6 (Homo sapiens, UniProt P10635);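 also: CYP2D6 member of a cytochrome P450 panel assay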
[14] = biological target: SUMO-activating enzyme (Homo sapiens, UniProt Q9UBT2); test: blockers of UBC9-mediated SUMO conjugation – biochemical, AlphaScreen, SUMOylation inhibitor project, confirmation (AID 2018); format: functional
[15] = biological target: Cytochrome P450 3A4 (Homo sapiens, UniProt P08684); conditions: Potency;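 also: confirmatory qHTS run detecting inhibitors and substrates of CYP3A4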
[16] = biological target: Tumor necrosis factor (Homo sapiens, UniProt P01375); test: analog potency on TNFa NF-kB signaling – cell-based, revised, SAR follow-up (AID 2337); format: functional
[17] = biological target: T3, Nucleotide-binding oligomerization domain-containing protein 1 (Homo sapiens, UniProt Q9Y239); test: blockers of NOD1 pathway activity – revised, SAR follow-up (AID 2333); format: functional
T3 sequence (Q9Y239 whole entry): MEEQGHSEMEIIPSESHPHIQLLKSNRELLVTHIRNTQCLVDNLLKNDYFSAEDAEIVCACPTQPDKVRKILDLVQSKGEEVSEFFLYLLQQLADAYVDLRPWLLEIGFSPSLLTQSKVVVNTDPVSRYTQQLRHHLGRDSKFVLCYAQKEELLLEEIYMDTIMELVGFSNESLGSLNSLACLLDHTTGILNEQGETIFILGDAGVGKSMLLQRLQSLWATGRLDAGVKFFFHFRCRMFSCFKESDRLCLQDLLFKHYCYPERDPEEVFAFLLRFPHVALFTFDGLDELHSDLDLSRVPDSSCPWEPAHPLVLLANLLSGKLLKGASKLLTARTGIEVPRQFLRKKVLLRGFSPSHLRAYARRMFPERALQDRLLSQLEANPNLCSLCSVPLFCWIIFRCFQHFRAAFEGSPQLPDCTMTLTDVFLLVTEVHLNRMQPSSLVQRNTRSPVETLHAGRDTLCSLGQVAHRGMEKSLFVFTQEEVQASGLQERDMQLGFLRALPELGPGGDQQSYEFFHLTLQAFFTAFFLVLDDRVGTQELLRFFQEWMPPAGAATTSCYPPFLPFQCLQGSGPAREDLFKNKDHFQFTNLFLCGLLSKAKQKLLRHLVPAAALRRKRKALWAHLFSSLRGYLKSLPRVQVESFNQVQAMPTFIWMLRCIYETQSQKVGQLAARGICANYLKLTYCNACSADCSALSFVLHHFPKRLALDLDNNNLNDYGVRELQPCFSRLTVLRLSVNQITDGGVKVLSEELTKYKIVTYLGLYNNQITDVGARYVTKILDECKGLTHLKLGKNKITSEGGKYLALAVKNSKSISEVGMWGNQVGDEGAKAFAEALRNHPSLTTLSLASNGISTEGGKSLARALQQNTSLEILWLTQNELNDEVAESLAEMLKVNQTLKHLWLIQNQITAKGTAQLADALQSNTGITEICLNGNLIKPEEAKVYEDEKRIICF

[18] = HEK-293T viability loss after treatment – luminescence, T-cell screen hits, cytotoxicity control for TCR NF-kB inhibitor project, dose response (AID 489026); format: functional, cell-based;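 also: cells exposed to compound about 14 hours before the viability readout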
[19] = tested on: HEK293; test: cells; conditions: Homo sapiens;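 also: cells exposed to compound for 14 hours overnight before viability readout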

Sequence of Cytochrome P450 2C9 (P11712 whole entry): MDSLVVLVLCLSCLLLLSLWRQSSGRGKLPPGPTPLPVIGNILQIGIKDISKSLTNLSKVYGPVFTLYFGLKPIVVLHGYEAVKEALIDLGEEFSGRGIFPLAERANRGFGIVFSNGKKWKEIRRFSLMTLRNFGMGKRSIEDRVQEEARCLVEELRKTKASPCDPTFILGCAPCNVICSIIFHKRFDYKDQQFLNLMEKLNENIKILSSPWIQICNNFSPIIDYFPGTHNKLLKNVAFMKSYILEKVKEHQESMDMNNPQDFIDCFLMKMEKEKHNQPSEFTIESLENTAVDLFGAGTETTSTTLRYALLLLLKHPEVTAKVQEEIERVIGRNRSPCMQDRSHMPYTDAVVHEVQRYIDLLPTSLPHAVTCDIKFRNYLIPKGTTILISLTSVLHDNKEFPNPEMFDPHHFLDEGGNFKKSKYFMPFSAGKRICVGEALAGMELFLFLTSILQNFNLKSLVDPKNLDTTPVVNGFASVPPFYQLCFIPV
Sequence of SUMO-activating enzyme (Q9UBE0 whole entry): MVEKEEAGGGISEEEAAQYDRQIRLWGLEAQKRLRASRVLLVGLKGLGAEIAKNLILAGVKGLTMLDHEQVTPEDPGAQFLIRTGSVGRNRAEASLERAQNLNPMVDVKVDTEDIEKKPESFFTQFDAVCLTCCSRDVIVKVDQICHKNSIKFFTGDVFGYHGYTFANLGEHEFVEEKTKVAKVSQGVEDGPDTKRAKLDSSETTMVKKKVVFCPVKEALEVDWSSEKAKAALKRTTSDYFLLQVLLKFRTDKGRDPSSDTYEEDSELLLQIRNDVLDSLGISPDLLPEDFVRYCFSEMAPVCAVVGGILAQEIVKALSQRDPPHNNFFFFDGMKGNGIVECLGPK
Sequence of SUMO-activating enzyme (Q9UBT2 whole entry): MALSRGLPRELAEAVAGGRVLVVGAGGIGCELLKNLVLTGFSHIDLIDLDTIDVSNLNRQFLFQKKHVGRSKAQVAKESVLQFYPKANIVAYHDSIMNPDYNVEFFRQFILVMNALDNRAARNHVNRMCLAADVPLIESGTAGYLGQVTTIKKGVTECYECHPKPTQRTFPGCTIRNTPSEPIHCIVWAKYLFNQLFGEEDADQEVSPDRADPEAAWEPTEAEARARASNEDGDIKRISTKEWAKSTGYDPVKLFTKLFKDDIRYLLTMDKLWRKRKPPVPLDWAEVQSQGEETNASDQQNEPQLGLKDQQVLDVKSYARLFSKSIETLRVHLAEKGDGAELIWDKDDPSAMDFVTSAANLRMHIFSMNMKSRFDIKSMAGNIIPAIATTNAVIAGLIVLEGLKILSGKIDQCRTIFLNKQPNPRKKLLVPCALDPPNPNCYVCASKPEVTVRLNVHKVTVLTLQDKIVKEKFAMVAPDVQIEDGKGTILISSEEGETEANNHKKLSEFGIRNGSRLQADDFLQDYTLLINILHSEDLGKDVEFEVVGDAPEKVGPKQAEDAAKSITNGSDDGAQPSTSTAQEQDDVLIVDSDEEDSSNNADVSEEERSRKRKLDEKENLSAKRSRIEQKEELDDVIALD
Sequence of SUMO E1/E2 (Q9UBE0 whole entry): as the sequence (Q9UBE0 whole entry) above
Sequence of SUMO E1/E2 (Q9UBT2 whole entry): as the sequence (Q9UBT2 whole entry) above
Sequence of SUMO E1/E2 (P63279 whole entry): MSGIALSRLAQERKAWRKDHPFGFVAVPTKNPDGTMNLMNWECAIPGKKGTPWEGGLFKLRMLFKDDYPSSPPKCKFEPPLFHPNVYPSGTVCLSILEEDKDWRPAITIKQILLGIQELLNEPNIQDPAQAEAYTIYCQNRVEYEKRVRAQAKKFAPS
Sequence of Tumor necrosis factor (P01375 whole entry, the tested form may be a part): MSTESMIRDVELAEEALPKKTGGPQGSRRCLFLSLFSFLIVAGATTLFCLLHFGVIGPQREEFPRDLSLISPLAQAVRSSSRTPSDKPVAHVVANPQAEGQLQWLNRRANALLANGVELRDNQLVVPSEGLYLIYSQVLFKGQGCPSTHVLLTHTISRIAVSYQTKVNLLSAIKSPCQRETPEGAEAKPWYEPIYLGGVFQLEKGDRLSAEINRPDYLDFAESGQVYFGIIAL
Sequence of Cytochrome P450 3A4 (P08684 whole entry): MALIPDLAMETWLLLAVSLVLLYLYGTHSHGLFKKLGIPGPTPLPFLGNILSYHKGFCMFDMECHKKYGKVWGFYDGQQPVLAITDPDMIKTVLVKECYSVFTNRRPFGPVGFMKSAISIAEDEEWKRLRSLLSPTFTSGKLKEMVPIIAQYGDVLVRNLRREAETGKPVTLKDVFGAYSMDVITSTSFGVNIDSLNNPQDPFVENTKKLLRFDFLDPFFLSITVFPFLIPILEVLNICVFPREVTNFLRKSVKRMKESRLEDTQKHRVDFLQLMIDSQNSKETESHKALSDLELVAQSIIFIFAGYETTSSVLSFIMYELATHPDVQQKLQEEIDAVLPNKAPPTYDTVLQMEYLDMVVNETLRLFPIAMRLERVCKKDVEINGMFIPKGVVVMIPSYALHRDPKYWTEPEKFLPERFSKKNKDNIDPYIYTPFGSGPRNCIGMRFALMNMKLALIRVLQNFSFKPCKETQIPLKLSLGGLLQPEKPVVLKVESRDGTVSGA
Sequence of Peroxisome proliferator-activated receptor gamma/Nuclear receptor coactivator 1 (P37231 whole entry): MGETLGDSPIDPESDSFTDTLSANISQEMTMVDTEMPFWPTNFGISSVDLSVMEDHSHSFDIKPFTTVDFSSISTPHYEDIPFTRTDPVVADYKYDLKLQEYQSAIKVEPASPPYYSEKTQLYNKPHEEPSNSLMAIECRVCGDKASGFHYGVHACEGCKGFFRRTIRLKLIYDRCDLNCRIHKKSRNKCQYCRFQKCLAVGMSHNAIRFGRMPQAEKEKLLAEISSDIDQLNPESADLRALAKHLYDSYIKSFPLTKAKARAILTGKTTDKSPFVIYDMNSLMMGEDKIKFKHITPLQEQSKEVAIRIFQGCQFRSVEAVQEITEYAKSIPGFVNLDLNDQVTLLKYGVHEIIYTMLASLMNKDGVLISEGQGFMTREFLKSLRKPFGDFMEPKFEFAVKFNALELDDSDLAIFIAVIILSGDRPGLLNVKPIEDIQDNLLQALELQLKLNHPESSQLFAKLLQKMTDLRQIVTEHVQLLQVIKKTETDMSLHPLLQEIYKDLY
Sequence of Peroxisome proliferator-activated receptor gamma/Nuclear receptor coactivator 1 (Q15788 whole entry, further chain): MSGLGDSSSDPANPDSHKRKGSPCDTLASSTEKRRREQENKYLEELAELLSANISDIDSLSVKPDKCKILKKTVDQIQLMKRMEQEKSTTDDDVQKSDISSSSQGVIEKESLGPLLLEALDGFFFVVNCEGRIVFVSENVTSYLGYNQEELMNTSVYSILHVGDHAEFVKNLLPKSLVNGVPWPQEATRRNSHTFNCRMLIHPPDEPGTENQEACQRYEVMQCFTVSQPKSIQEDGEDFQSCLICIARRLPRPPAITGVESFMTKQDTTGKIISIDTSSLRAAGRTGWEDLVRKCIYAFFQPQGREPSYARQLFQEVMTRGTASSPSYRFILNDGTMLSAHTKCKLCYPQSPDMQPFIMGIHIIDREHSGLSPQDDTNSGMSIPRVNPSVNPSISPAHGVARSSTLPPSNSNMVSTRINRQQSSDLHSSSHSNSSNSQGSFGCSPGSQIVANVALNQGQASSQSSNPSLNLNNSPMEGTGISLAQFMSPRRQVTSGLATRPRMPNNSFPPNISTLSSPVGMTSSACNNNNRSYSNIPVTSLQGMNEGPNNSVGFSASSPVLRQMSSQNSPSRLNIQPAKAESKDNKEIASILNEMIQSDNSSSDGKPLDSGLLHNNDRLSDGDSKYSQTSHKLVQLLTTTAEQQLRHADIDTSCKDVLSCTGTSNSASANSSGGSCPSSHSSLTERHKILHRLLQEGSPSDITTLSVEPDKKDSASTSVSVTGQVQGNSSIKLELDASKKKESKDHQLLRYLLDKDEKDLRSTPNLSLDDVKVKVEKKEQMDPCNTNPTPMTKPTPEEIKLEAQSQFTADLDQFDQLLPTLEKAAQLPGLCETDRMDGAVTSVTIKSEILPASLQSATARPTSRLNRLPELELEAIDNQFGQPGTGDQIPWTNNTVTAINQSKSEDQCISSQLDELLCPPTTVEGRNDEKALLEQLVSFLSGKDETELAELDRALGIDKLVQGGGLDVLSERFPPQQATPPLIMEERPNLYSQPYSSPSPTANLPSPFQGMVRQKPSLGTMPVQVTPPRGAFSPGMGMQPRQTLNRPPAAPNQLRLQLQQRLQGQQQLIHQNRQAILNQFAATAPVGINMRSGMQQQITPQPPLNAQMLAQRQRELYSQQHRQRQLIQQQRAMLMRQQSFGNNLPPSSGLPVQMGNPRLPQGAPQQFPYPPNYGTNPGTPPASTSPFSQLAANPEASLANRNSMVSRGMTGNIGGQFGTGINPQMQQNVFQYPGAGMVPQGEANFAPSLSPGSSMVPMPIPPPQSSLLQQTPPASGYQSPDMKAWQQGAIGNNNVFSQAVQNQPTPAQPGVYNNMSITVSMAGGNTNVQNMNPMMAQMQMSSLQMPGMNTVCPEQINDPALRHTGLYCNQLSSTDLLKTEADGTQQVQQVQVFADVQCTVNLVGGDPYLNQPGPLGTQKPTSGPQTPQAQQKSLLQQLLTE
Sequence of Nonstructural protein 1 (Q194T2 whole entry): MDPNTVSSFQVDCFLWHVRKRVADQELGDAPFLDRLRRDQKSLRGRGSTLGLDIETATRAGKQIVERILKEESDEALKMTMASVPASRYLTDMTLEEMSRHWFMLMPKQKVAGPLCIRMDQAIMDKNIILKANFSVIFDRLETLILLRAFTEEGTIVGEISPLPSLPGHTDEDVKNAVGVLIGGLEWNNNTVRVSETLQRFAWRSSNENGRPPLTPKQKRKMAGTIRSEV

CC(C)(C)c1cc(O)ccc1O [E319]
AC50 [1]: 7.94 µM (inconclusive)

O=C1C=CC(=O)N1c1ccc(OC(F)F)cc1
AC50 [2]: 3.12 µM (active)
IC50 [3]: > 66.6 µM (inactive)
AC50 [4]: 1.65 µM (active)

Oc1nncc(N/N=C/c2ccccn2)n1
IC50 [5]: 27.5 µM (inactive)
IC50 [6]: 1.44 µM (active)
IC50 [7]: 32.2 µM (inactive)
AC50 [8]: 4.65 µM (active)

COc1cc(-c2n[nH]c(=S)n2/N=C/c2cccn2C)cc(OC)c1OC
IC50 [9]: > 100 µM (inactive)

O=C(CSc1nnc2c3ccccc3c3ccccc3c2n1)Nc1ccccc1
EC50 [10]: 28.6 µM (not active)
EC50 [11]: 31.7 µM (not active)
EC50 [12]: 39.1 µM (not active)
AC50 [13]: 7.94 µM (inconclusive)

COc1cccc(NC(=O)Nc2nnc(-c3ccccc3SCc3ccccc3)s2)c1
IC50 [14]: 56.6 µM (active)

CCCCCCCC1=CC2=CC(=O)C(C)(OC(C)=O)C(=O)C2=CN1CCc1ccccc1 (stereo not given)
AC50 [15]: 3.98 µM (inconclusive)
AC50 [1]: 6.31 µM (inconclusive)

O=C(Nc1ccc(F)cc1)c1ccc(CN2CCc3ccccc3C2)cc1
IC50 [16]: 2.88 µM (active)
IC50 [17]: 3.11 µM (active)
IC50 [18]: > 80 µM (inactive)
IC50 [19]: > 20 µM (inactive)
